Reference: US7151105B2, “Inhibitors of Hepatitis C virus RNA-dependent RNA polymerase, and compositions and treatments using the same” (Agouron Pharmaceuticals, Inc., priority 2004, dated 2006)

target: T1, Recombinant HCV polymerase (Hepatitis C virus genotype 1b, UniProt P26663); test: biochemical; conditions: inhibition of polymerase-directed transcription; 30 min at 30° C; 30 nM enzyme; cpm data in triplicate
T1 construct: Recombinant HCV polymerase was tested for its ability to perform primer/template-directed transcription
In short: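 Primer/template-directed RNA synthesis by 2.5 pmol HCV polymerase on poly(rC)300/biotin-dG12 with 1 μM GTP plus α-32P-GTP, in pH 7.2 Tris buffer with 10 mM MgCl2, for 30 min at 30 °C. Products were filter-captured and counted, with 1% DMSO final. IC50 was fitted from triplicate cpm; percent inhibition was reported where IC50 was impractical.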

T1 sequence (P26663 2420-3010): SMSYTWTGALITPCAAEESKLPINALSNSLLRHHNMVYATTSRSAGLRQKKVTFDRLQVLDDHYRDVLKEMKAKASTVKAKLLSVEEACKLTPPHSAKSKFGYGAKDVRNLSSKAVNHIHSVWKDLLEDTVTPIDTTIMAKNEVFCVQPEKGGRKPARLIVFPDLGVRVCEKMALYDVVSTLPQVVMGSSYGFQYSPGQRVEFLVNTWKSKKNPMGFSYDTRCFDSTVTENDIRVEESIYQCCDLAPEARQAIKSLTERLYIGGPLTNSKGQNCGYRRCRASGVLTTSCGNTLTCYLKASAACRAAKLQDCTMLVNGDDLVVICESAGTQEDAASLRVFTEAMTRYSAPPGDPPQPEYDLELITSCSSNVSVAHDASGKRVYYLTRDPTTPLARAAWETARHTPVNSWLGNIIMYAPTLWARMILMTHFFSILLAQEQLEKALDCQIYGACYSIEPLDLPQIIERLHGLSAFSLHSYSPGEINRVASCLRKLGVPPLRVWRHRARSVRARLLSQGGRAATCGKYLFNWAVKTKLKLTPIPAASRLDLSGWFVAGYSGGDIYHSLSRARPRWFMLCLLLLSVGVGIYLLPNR

IC50	Compound
4 nM	CCc1cc(CCC2(C3CCCC3)CC(O)=C(Cc3nc4ncc(C)cn4n3)C(=O)O2)ccc1NS(C)(=O)=O (centres unmarked) [A(106), N-[4-(2-{2-cyclopentyl-4-hydroxy-5-[(6-methyl[1,2,4]triazolo[1,5-a]pyrimidin-2-yl)methyl]-6-oxo-3,6-dihydro-2H-pyran-2-yl}ethyl)-2-ethylphenyl]methanesulfonamide]
6 nM	CCc1cc(CCC2(C3CCCC3)CC(O)=C(Cc3nc4ncccn4n3)C(=O)O2)ccc1NS(C)(=O)=O (centres unmarked) [A(107), N-(4-{2-[2-cyclopentyl-4-hydroxy-6-oxo-5-([1,2,4]triazolo[1,5-a]pyrimidin-2-ylmethyl)-3,6dihydro-2H-pyran-2-yl]ethyl}-2-ethylphenyl)methanesulfonamide]
6 nM	CCc1cc(CCC2(C3CCCC3)CC(O)=C(Cc3nc4nc(C)cc(C)n4n3)C(=O)O2)ccc1NS(=O)(=O)CC (centres unmarked) [A(108), N-[4-(2-{2-cyclopentyl-5-[(5,7-dimethyl[1,2,4]triazolo[1,5-a]pyrimidin-2-yl)methyl]-4-hydroxy-6-oxo-3,6-dihydro-2H-pyran-2-yl}ethyl)-2-ethylphenyl]ethanesulfonamide]
6 nM	CCCS(=O)(=O)Nc1ccc(CCC2(C3CCCC3)CC(O)=C(Cc3nc4nc(C)cc(C)n4n3)C(=O)O2)cc1CC (centres unmarked) [A(109), N-[4-(2-{2-cyclopentyl-5-[(5,7-dimethyl[1,2,4]triazolo[1,5-a]pyrimidin-2-yl)methyl]-4-hydroxy-6-oxo-3,6-dihydro-2H-pyran-2-yl}ethyl)-2-ethylphenyl]propane-1-sulfonamide]
6 nM	CCc1cc(CCC2(C3CCCC3)CC(O)=C(Cc3nc4nc(C)cc(C)n4n3)C(=O)O2)ccc1Cn1cncn1 (centres unmarked) [A(110), 6-Cyclopentyl-3-[(5,7-dimethyl[1,2,4]triazolo[1,5-a]pyrimidin-2-yl)methyl]-6-{2-[3-ethyl-4-(1H-1,2,4-triazol-1-ylmethyl)phenyl]ethyl}-4-hydroxy-5,6-dihydro-2H-pyran-2-one]
5 nM	CCc1cc(CCC2(C3CCCC3)CC(O)=C(Cc3nc4nc(C)cc(C)n4n3)C(=O)O2)ccc1C (centres unmarked) [A(111), 6-Cyclopentyl-3[(5,7-dimethyl[1,2,4]triazolo[1,5-a]pyrimidin-2-yl)methyl]-6-[2-(3-ethyl-4-methylphenyl)ethyl]-4-hydroxy-5,6dihydro-2H-pyran-2-one]
7 nM	CCc1cc(CCC2(C3CCCC3)CC(O)=C(Cc3nc4nc(C)cc(C)n4n3)C(=O)O2)ccc1Cn1cccn1 (centres unmarked) [A(112), 6-Cyclopentyl-3-[(5,7-dimethyl[1,2,4]triazolo[1,5-a]pyrimidin-2-yl)methyl]-6-{2-[3-ethyl-4-(1H-pyrazol-1-ylmethyl)phenyl]ethyl}-4-hydroxy-5,6-dihydro-2H-pyran-2-one]
7 nM	CCc1cc(CCC2(C3CCCC3)CC(O)=C(Cc3nc4ncc(C)cn4n3)C(=O)O2)ccc1Cn1cccn1 (centres unmarked) [A(113), 6-Cyclopentyl-6-{2-[3-ethyl-4-(1H-pyrazol-1-ylmethyl)phenyl]ethyl}-4-hydroxy-3-[(6-methyl[1,2,4]triazolo[1,5-a]pyrimidin-2-yl)methyl]-5,6-dihydro-2H-pyran-2-one]
7 nM	CCc1cc(CCC2(C3CCCC3)CC(O)=C(Cc3nc4nc(C)cc(C)n4n3)C(=O)O2)ccc1C(=O)OC (centres unmarked) [A(118), Methyl 4-(2-{2-cyclopentyl-5-[(5,7-dimethyl[1,2,4]triazolo[1,5a]pyrimidin-2-yl)methyl]-4-hydroxy-6oxo-3,6-dihydro-2H-pyran-2-yl}ethyl)-2-ethylbenzoate]
7 nM	CCc1cc(CCC2(C3CCCC3)CC(O)=C(Cc3nc4nc(C)cc(C)n4n3)C(=O)O2)ccc1COC (centres unmarked) [A(120), 6-Cyclopentyl-3-[(5,7-dimethyl[1,2,4]triazolo[1,5-a]pyrimidin-2-yl)methyl]-6-{2-[3ethyl-4-(methoxymethyl)phenyl]ethyl}-4-hydroxy-5,6dihydro-2H-pyran-2-one]

More lines, now with the values behind:

Compound	IC50
Cc1nn(C)c(Cl)c1CC1=C(O)CC(CCc2ccc(C(C)(C)C#N)c(F)c2)(C2CCCC2)OC1=O (centres unmarked) [A(96), 2-[4-(2-{5-[(5-Chloro-1,3-dimethyl-1H-pyrazol-4-yl)methyl]-2-cyclopentyl-4-hydroxy-6-oxo-3,6-dihydro-2H-pyran-2-yl}ethyl)-2-fluorophenyl]-2-methylpropanenitrile]	6 nM
Cn1nc(C(F)(F)F)c(CC2=C(O)CC(CCc3ccc(C(C)(C)C#N)c(F)c3)(C3CCCC3)OC2=O)c1Cl (centres unmarked) [A(97), 2-{4-[2-(5-{[5-Chloro-1-methyl-3-(trifluoromethyl)-1H-pyrazol-4-yl]methyl}-2-cyclopentyl-4-hydroxy-6-oxo-3,6-dihydro-2H-pyran-2-yl)ethyl]-2-fluorophenyl}-2-methylpropanenitrile]	11 nM
COc1cc(O)c(C(C)=O)cc1CCC1(C2CCCC2)CC(O)=C(Cc2nc3nc(C)cc(C)n3n2)C(=O)O1 (centres unmarked) [A(98), 6-[2-(5-Acetyl-4-hydroxy-2-methoxyphenyl)ethyl]-cyclopentyl-3-[(5,7-dimethyl[1,2,4]triazolo[1,5-a]pyrimidin-2-yl)methyl]-4-hydroxy-5,6-dihydro-2H-pyran-2-one]	11 nM
COc1cc(O)c(C(C)=O)cc1CCC1(C2CCCC2)CC(=O)CC(=O)O1 (centres unmarked) [A(99), 6-[2-(5-Acetyl-4-hydroxy-2-methoxyphenyl)ethyl]-6-cyclopentyldihydro-2H-pyran-2,4(3H)-dione]	8400 nM
Cc1c(CC2=C(O)CC(CCc3ccc(C(C)(C)C#N)c(F)c3)(C3CCCC3)OC2=O)c(=O)n(-c2ccccc2)n1C (centres unmarked) [A(100), 2-[4-(2-{2-Cyclopentyl-5-[(1,5-dimethyl-3-oxo-2-phenyl-2,3-dihydro-1H-pyrazol-4-yl)methyl]-4-hydroxy-6-oxo-3,6-dihydro-2H-pyran-2-yl}ethyl)-2-fluorophenyl]-2-methylpropanenitrile]	79 nM
CCc1cc(CCC2(C3CCCC3)CC(O)=C(Cc3nc4nc(C)cc(C)n4n3)C(=O)O2)ccc1CC#N (centres unmarked) [A(101), [4-(2-{2-Cyclopentyl-5-[(5,7-dimethyl[1,2,4]triazolo[1,5-a]pyrimidin-2-yl)methyl]-4-hydroxy-6-oxo-3,6-dihydro-2H-pyran-2-yl}ethyl)-2-ethylphenyl]acetonitrile]	8 nM
CCc1cc(CCC2(C3CCCC3)CC(=O)CC(=O)O2)ccc1CC#N (centres unmarked) [A(102), {4-[2-(2-Cyclopentyl-4,6-dioxotetrahydro-2H-pyran-2-yl)ethyl]-2-ethylphenyl}acetonitrile]	840 nM
CCc1cc(CCC2(C3CCCC3)CC(O)=C(Cc3nc4ncc(C)cn4n3)C(=O)O2)ccc1CC#N (centres unmarked) [A(103), [4-(2-{2-cyclopentyl-4-hydroxy-5-[(6-methyl[1,2,4]triazolo[1,5-a]pyrimidin-2-yl)methyl]-6-oxo-3,6-dihydro-2H-pyran-2-yl}ethyl)-2-ethylphenyl]acetonitrile]	3 nM
CCc1cc(CCC2(C3CCCC3)CC(O)=C(Cc3nc4nc(C)cc(C)n4n3)C(=O)O2)ccc1NS(C)(=O)=O (centres unmarked) [A(104), N-[4-(2-{2-cyclopentyl-5-[(5,7-dimethyl[1,2,4]triazolo[1,5-a]pyrimidin-2-yl)methyl]-4-hydroxy-6-oxo-3,6dihydro-2H-pyran-2-yl}ethyl)-2-ethylphenyl]methanesulfonamide]	6 nM
CCc1cc(CCC2(C3CCCC3)CC(=O)CC(=O)O2)ccc1NS(C)(=O)=O (centres unmarked) [A(105), N-{4-[2-(2-cyclopentyl-4,6-dioxotetrahydro-2H-pyran-2-yl)ethyl]-2-ethylphenyl}methanesulfonamide]	250 nM
